Columns and labels:
Type in all cases: in vivo
soybean (Glycine max) = assay: Test F pre-/postemergence: soybean
Summary of the method: (§1)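 Preemergence treatment of seeds sown in silt loam soil, and postemergence treatment of plants 2–18 cm tall (1- to 4-leaf stage), with compounds in non-phytotoxic solvent plus surfactant. Greenhouse 14–21 days, then visual rating versus controls on 0–100 scale (100 = complete control).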

[1] = system: oat, wild (wild oat, Avena fatua); assay: Test D pre-/postemergence: oat, wild
Excerpt: Seeds of plant species selected from bluegrass (annual bluegrass, Poa annua), blackgrass (Alopecurus myosuroides), canarygrass (Phalaris minor), chickweed (common chickweed, Stellaria media), galium (catchweed bedstraw, Galium aparine), bromegrass, downy (downy bromegrass, Bromus tectorum), field poppy (Papaver rhoeas), field violet (Viola arvensis), foxtail, green (green foxtail, Setaria viridis), deadnettle (henbit deadnettle, Lamium amplexicaule), ryegrass, Italian (Italian ryegrass, Lolium multiflorum), kochia (Kochia scoparia), lambsquarters (Chenopodium album), oilseed rape (Brassica napus), pigweed (Amaranthus retroflexus), Russian thistle (Salsola iberica), chamomile (scentless chamomile, Matricaria inodora), speedwell (bird's-eye speedwell, Veronica persica), barley, spring (spring barley, Hordeum vulgare), wheat, spring (spring wheat, Triticum aestivum), buckwheat, wild (wild buckwheat, Polygonum convolvulus), mustard, wild (wild mustard, Sinapis arvensis), oat, wild (wild oat, Avena fatua), radish, wild (wild radish, Raphanus raphanistrum), windgrass (Apera spica-venti), barley, winter (winter barley, Hordeum vulgare), and wheat, winter (winter wheat, Triticum aestivum) were planted into a silt loam soil and treated preemergence with test chemicals formulated in a non-phytotoxic solvent mixture which included a surfactant. At the same time, these same crop and weed species were planted in pots containing the planting medium comprising spaghnum peat moss, vermiculite, wetting agent and starter nutrients and treated with postemergence applications of the test chemicals formulated in the same manner. Plants ranged in height from 2 to 18 cm (1- to 4-leaf stage).
(§2) Treated plants and controls were maintained in a controlled growth environment for 14 to 21 days after which time all species were compared to controls and visually evaluated. Plant response ratings, summarized in Table D, are based on a scale of 0 to 100 where 0 is no effect and 100 is complete control. A dash (-) response means no test result.

[2] = system: panicum, fall (fall panicum Panicum dichotomiflorum); assay: Test F pre-/postemergence: panicum, fall
Excerpt: (§3) Seeds of plant species selected from corn (Zea mays), soybean (Glycine max), velvetleaf (Abutilon theophrasti), lambsquarters (Chenopodium album), poinsettia, wild (wild poinsettia, Euphorbia heterophylla), pigweed, palmer (palmer pigweed, Amaranthus palmeri), waterhemp (common waterhemp, Amaranthus rudis), surinam grass (Brachiaria decumbens), crabgrass, Brazil (Brazilian crabgrass, Digitaria horizontalis), panicum, fall (fall panicum Panicum dichotomiflorum), crabgrass, large (large crabgrass, Digitaria sanguinalis), foxtail, giant (giant foxtail, Setaria faberii), foxtail, green (green foxtail Setaria viridis), goosegrass (Eleusine indica), ragweed (common ragweed, Ambrosia elatior), barnyardgrass (Echinochloa crus-galli), sandbur (southern sandbur, Cenchrus echinatus), arrowleaf sida (Sida rhombifolia), ryegrass, Italian (Italian ryegrass, Lolium multiflorum), dayflower, VA (Virginia (VA) dayflower, Commelina virginica), field bindweed (Convolvulus arvensis), cocklebur (common cocklebur, Xanthium strumarium), morningglory (Ipomoea coccinea), nightshade (eastern black nightshade, Solanum ptycanthum), kochia (Kochia scoparia), nutsedge, yellow (yellow nutsedge, Cyperus esculentus), johnsongrass (Sorghum halepense), smartweed (ladysthumb smartweed, Polygonum persicaria), and beggarticks (hairy beggarticks, Bidens pilosa), were planted into a silt loam soil and treated preemergence with test chemicals formulated in a non-phytotoxic solvent mixture which included a surfactant. At the same time, plants selected from these crop and weed species and also pigweed (Amaranthus retroflexus), waterhemp_RES1 (ALS/Triazine resistant common waterhemp, Amaranthus rudis) and waterhemp_RES2 (ALS/HPPD resistant common waterhemp, Amaranthus rudis) were planted in pots containing a planting medium comprising spaghnum peat moss, vermiculite, wetting agent and starter nutrients treated with postemergence applications of some of the test chemicals formulated in the same manner. Plants ranged in height from 2 to 18 cm for postemergence treatments (1- to 4-leaf stage).
as §2, with “greenhouse” for “controlled growth environment”, “days,” for “days”, “E,” for “D,”

[3] = system: nutsedge, yellow (yellow nutsedge, Cyperus esculentus); assay: Test F pre-/postemergence: nutsedge, yellow; details: Preemergence
Summary of the method: as §1

[4] = system: arrowleaf sida (Sida rhombifolia); assay: Test F pre-/postemergence: arrowleaf sida
Summary of the method: as §1

kochia (Kochia scoparia) = assay: Test D pre-/postemergence: kochia
Summary of the method: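 Species were sown in silt loam and sprayed preemergence, or grown in peat/vermiculite medium and sprayed postemergence at the 1- to 4-leaf stage (2–18 cm), with compounds in a surfactant-containing solvent. Injury was visually rated against untreated controls after 14–21 days, on a 0 (no effect) to 100 (complete control) scale.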

[5] = system: johnsongrass (Sorghum halepense); assay: Test F pre-/postemergence: johnsongrass; details: Preemergence
Excerpt: as §3
as §2, with “greenhouse” for “controlled growth environment”, “days,” for “days”, “E,” for “D,”

[6] = Preemergence, 16 g ai/ha, scale 0 to 100, 0 no effect, 100 complete control
[7] = Preemergence, 31 g ai/ha, scale 0 to 100, 0 no effect, 100 complete control
[8] = Preemergence, 125 g ai/ha, scale 0 to 100
[9] = Preemergence, 250 g ai/ha, scale 0 to 100
[10] = Postemergence, 31 g ai/ha, scale 0 to 100 (0 no effect, 100 complete control)
[11] = Postemergence, 62 g ai/ha, scale 0 to 100 (0 no effect, 100 complete control)
[12] = Postemergence, 125 g ai/ha, scale 0 to 100, 0 no effect, 100 complete control
[13] = Postemergence, 16 g ai/ha, scale 0 to 100
[14] = Preemergence, 62 g ai/ha, scale 0 to 100
[15] = 16 g ai/ha, scale 0 to 100, 0 no effect, 100 complete control
[16] = 31 g ai/ha, scale 0 to 100, 0 no effect, 100 complete control
[17] = Postemergence, 8 g ai/ha, scale 0 to 100
[18] = Postemergence, 31 g ai/ha, scale 0 to 100
[19] = Postemergence, 62 g ai/ha, scale 0 to 100
[20] = Postemergence, 125 g ai/ha, scale 0 to 100
[21] = Preemergence, 8 g ai/ha, scale 0 to 100, 0 no effect, 100 complete control

Cc1nn(-c2ccc(C(F)(F)F)c(F)c2)nc1Oc1ccnc(C(F)(F)F)c1 [Compound 148]
Plant response rating, Soybean (soybean (Glycine max); [6]): 0 | Plant response rating, Soybean (soybean (Glycine max); [7]): 0 | Plant response rating, Soybean (soybean (Glycine max); [8]): 20 | Plant response rating, Soybean (soybean (Glycine max); [9]): 40 | Plant response rating: Oat, Wild [1, 10]: 15 | Plant response rating: Oat, Wild [1, 11]: 30 | Plant response rating: Oat, Wild [1, 12]: 55 | Plant response rating, Oat, Wild [1, 13]: 5 | Plant response rating, Oat, Wild [1, 6]: 5 | Plant response rating, Oat, Wild [1, 7]: 20 | Plant response rating, Oat, Wild [1, 14]: 30 | Plant response rating, Oat, Wild [1, 8]: 65 | Plant response rating, Panicum, Fall [2, 6]: 75 | Plant response rating, Panicum, Fall [2, 7]: 85 | Plant response rating, Panicum, Fall [2, 8]: 100 | Plant response rating, Panicum, Fall [2, 9]: 100 | Plant response rating, Nutsedge, Yellow [3, 15]: 0 | Plant response rating, Nutsedge, Yellow [3, 16]: 0 | Plant response rating, Nutsedge, Yellow ([3]; 125 g ai/ha, scale 0 to 100): 20 | Plant response rating, Nutsedge, Yellow ([3]; 250 g ai/ha, scale 0 to 100): 35 | Plant response rating, Arrowleaf Sida [4, 6]: 0 | Plant response rating, Arrowleaf Sida [4, 7]: 0 | Plant response rating, Arrowleaf Sida [4, 14]: 0 | Plant response rating, Arrowleaf Sida [4, 8]: 0 | Plant response rating, Arrowleaf Sida [4, 9]: 0 | Plant response rating: Kochia (kochia (Kochia scoparia); [10]): 85 | Plant response rating: Kochia (kochia (Kochia scoparia); [11]): 85 | Plant response rating: Kochia (kochia (Kochia scoparia); [12]): 85 | Plant response rating, Kochia (kochia (Kochia scoparia); [13]): 75 | Plant response rating, Kochia (kochia (Kochia scoparia); [6]): 10 | Plant response rating, Kochia (kochia (Kochia scoparia); [7]): 20 | Plant response rating, Kochia (kochia (Kochia scoparia); [14]): 10 | Plant response rating, Kochia (kochia (Kochia scoparia); [8]): 75 | Plant response rating, Johnsongrass [5, 15]: 0 | Plant response rating, Johnsongrass [5, 16]: 20 | Plant response rating, Johnsongrass ([5]; 62 g ai/ha, scale 0 to 100): 20 | Plant response rating, Johnsongrass ([5]; 125 g ai/ha, scale 0 to 100): 30 | Plant response rating, Johnsongrass ([5]; 250 g ai/ha, scale 0 to 100): 40

CCc1nn(-c2ccc(C(F)(F)F)cc2)nc1Cc1ccnc(C(F)(F)F)c1 [Compound 155]
Plant response rating, Soybean (soybean (Glycine max); [8]): 30 | Plant response rating, Soybean (soybean (Glycine max); [9]): 30 | Plant response rating: Oat, Wild [1, 10]: 20 | Plant response rating: Oat, Wild [1, 11]: 55 | Plant response rating: Oat, Wild [1, 12]: 75 | Plant response rating, Oat, Wild [1, 13]: 10 | Plant response rating, Oat, Wild [1, 6]: 5 | Plant response rating, Oat, Wild [1, 7]: 50 | Plant response rating, Oat, Wild [1, 14]: 15 | Plant response rating, Oat, Wild [1, 8]: 60 | Plant response rating, Panicum, Fall [2, 8]: 100 | Plant response rating, Panicum, Fall [2, 9]: 100 | Plant response rating, Nutsedge, Yellow ([3]; 125 g ai/ha, scale 0 to 100): 25 | Plant response rating, Nutsedge, Yellow ([3]; 250 g ai/ha, scale 0 to 100): 30 | Plant response rating, Arrowleaf Sida [4, 14]: 10 | Plant response rating, Arrowleaf Sida [4, 8]: 40 | Plant response rating, Arrowleaf Sida [4, 9]: 75 | Plant response rating: Kochia (kochia (Kochia scoparia); [10]): 80 | Plant response rating: Kochia (kochia (Kochia scoparia); [11]): 85 | Plant response rating: Kochia (kochia (Kochia scoparia); [12]): 85 | Plant response rating, Kochia (kochia (Kochia scoparia); [13]): 70 | Plant response rating, Kochia (kochia (Kochia scoparia); [6]): 30 | Plant response rating, Kochia (kochia (Kochia scoparia); [7]): 60 | Plant response rating, Kochia (kochia (Kochia scoparia); [14]): 65 | Plant response rating, Kochia (kochia (Kochia scoparia); [8]): 75 | Plant response rating, Johnsongrass ([5]; 62 g ai/ha, scale 0 to 100): 90 | Plant response rating, Johnsongrass ([5]; 125 g ai/ha, scale 0 to 100): 90 | Plant response rating, Johnsongrass ([5]; 250 g ai/ha, scale 0 to 100): 100

CCOc1nn(-c2ccc(F)cc2)nc1Cc1ccnc(C(F)(F)F)c1 [Compound 196, 4-[[5-ethoxy-2-(4-fluorophenyl)-2H-1,2,3-triazol-4-yl]methyl]-2-(trifluoromethyl)pyridine]
Plant response rating, Soybean (soybean (Glycine max); [17]): 50 | Plant response rating, Soybean (soybean (Glycine max); [13]): 60 | Plant response rating, Soybean (soybean (Glycine max); [18]): 65 | Plant response rating, Soybean (soybean (Glycine max); [19]): 70 | Plant response rating, Soybean (soybean (Glycine max); [20]): 80 | Plant response rating, Soybean (soybean (Glycine max); [21]): 0 | Plant response rating, Soybean (soybean (Glycine max); [6]): 0 | Plant response rating, Soybean (soybean (Glycine max); [7]): 20 | Plant response rating, Soybean (soybean (Glycine max); [8]): 35 | Plant response rating: Oat, Wild [1, 10]: 50 | Plant response rating: Oat, Wild [1, 11]: 45 | Plant response rating: Oat, Wild [1, 12]: 70 | Plant response rating, Oat, Wild [1, 13]: 15 | Plant response rating, Oat, Wild [1, 6]: 25 | Plant response rating, Oat, Wild [1, 7]: 30 | Plant response rating, Oat, Wild [1, 14]: 75 | Plant response rating, Oat, Wild [1, 8]: 100 | Plant response rating, Panicum, Fall [2, 17]: 20 | Plant response rating, Panicum, Fall [2, 13]: 40 | Plant response rating, Panicum, Fall [2, 18]: 80 | Plant response rating, Panicum, Fall [2, 19]: 85 | Plant response rating, Panicum, Fall [2, 20]: 85 | Plant response rating, Panicum, Fall [2, 21]: 25 | Plant response rating, Panicum, Fall [2, 7]: 98 | Plant response rating, Panicum, Fall [2, 8]: 100 | Plant response rating, Nutsedge, Yellow ([3]; 8 g ai/ha, scale 0 to 100, 0 no effect, 100 complete control): 0 | Plant response rating, Nutsedge, Yellow [3, 15]: 0 | Plant response rating, Nutsedge, Yellow [3, 16]: 0 | Plant response rating, Nutsedge, Yellow ([3]; 125 g ai/ha, scale 0 to 100): 75 | Plant response rating, Arrowleaf Sida [4, 17]: 80 | Plant response rating, Arrowleaf Sida [4, 13]: 90 | Plant response rating, Arrowleaf Sida [4, 18]: 90 | Plant response rating, Arrowleaf Sida [4, 19]: 95 | Plant response rating, Arrowleaf Sida [4, 20]: 95 | Plant response rating, Arrowleaf Sida [4, 21]: 0 | Plant response rating, Arrowleaf Sida [4, 6]: 0 | Plant response rating, Arrowleaf Sida [4, 7]: 15 | Plant response rating, Arrowleaf Sida [4, 14]: 15 | Plant response rating, Arrowleaf Sida [4, 8]: 15 | Plant response rating: Kochia (kochia (Kochia scoparia); [10]): 85 | Plant response rating: Kochia (kochia (Kochia scoparia); [11]): 90 | Plant response rating: Kochia (kochia (Kochia scoparia); [12]): 90 | Plant response rating, Kochia (kochia (Kochia scoparia); [13]): 70 | Plant response rating, Kochia (kochia (Kochia scoparia); [6]): 35 | Plant response rating, Kochia (kochia (Kochia scoparia); [7]): 70 | Plant response rating, Kochia (kochia (Kochia scoparia); [14]): 100 | Plant response rating, Kochia (kochia (Kochia scoparia); [8]): 100 | Plant response rating, Johnsongrass [5, 15]: 65 | Plant response rating, Johnsongrass [5, 16]: 65 | Plant response rating, Johnsongrass ([5]; 62 g ai/ha, scale 0 to 100): 95 | Plant response rating, Johnsongrass ([5]; 125 g ai/ha, scale 0 to 100): 98
